The assay has as its target 5-hydroxytryptamine receptor 7 (Homo sapiens, UniProt P34969). The experiment in a line: A similar stock of the reference compound chlorpromazine is also prepared as a positive control. Eleven dilutions (5× assay concentration) of the compound of the disclosure and chlorpromazine are prepared in the Assay Buffer by serial dilution to yield final corresponding assay concentrations ranging from 10 pM to 10 μM.A stock concentration of 5 nM [3H]LSD (lysergic acid diethyl amide) is prepared in 50 mM Tris-HCl, 10 mM MgCl2, 1 mM EDTA, pH 7.4 (Assay Buffer). Aliquots (50 μl) of radioligand are dispensed into the wells of a 96-well plate containing 100 μl of Assay Buffer. Duplicate 50-μl aliquots of the compound of the disclosure test and chlorpromazine positive control reference compound serial dilutions are added.Membrane fractions of cells expressing recombinant 5HT7 receptors (50 μL) are dispensed into each well. […].

As usually defined, the pIC50 is the IC50 on a negative log10 scale, so that one unit is a factor of ten.

pIC50: −log10 of the molar value.

5-hydroxytryptamine receptor 7, sequence (P34969 whole entry): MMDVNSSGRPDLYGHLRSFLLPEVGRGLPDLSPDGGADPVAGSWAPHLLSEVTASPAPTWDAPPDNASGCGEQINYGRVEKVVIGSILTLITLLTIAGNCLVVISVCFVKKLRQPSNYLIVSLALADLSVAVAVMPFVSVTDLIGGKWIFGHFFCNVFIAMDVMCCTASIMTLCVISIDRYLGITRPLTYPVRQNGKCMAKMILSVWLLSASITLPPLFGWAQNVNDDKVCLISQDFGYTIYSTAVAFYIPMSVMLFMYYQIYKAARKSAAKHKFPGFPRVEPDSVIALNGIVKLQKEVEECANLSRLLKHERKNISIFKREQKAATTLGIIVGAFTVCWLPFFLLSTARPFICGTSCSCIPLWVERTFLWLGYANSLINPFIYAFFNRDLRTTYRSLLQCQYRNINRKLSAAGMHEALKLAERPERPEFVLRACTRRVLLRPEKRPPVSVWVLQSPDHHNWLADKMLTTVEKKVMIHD

With `CCC1(CC)CC(CCN2CCC(C(O)(c3ccccc3)c3ccccc3)CC2)OC1=O` (stereo unspecified), the pIC50 is 5.50.

For the origin of these results see ChEMBL document CHEMBL5726765, “5-hydroxytryptamine receptor 7 activity modulators and their method of use” (2019).
